Calls of active or inactive are those of the source. No rule for the calls is given here.
Tested on: CCRIS mutagenicity, Ames/micronucleus/aberration tests
Assay: CCRIS mutagenicity studies

For `ClCc1ccccc1`, the mutagenic call (End Point: IN VITRO CHROMOSOMAL ABERRATIONS, Test System: CHL CELLS, Metabolic Activation: RAT, LIVER, S-9, SODIUM PHENOBARBITAL AND 5,6-BENZOFLAVONE) was “active; positive (structural changes)”, the mutagenic call (End Point: IN VITRO MICRONUCLEUS, Test System: CHL/IU CELLS, Metabolic Activation: NONE) was “active; positive” and the mutagenic call (Test System: AMES SALMONELLA TYPHIMURIUM, Strain/Indicator: TA97, Metabolic Activation: HAMSTER, LIVER, S-9, AROCLOR 1254 (10%), Method: PREINCUBATION) was “inactive; negative”. For the same compound, the mutagenic call (Test System: AMES SALMONELLA TYPHIMURIUM, Strain/Indicator: TA97, Metabolic Activation: HAMSTER, LIVER, S-9, AROCLOR 1254 (30%), Method: PREINCUBATION) was “inactive; negative”, the mutagenic call (Test System: AMES SALMONELLA TYPHIMURIUM, Strain/Indicator: TA97, Metabolic Activation: NONE, Method: PREINCUBATION) was “inactive; negative” and the mutagenic call (Test System: AMES SALMONELLA TYPHIMURIUM, Strain/Indicator: TA97, Metabolic Activation: RAT, LIVER, S-9, AROCLOR 1254 (10%), Method: PREINCUBATION) was “inactive; negative”. The mutagenic call (Test System: AMES SALMONELLA TYPHIMURIUM, Strain/Indicator: TA97, Metabolic Activation: RAT, LIVER, S-9, AROCLOR 1254 (30%), Method: PREINCUBATION) was “inactive; negative”, the mutagenic call (Test System: AMES SALMONELLA TYPHIMURIUM, Strain/Indicator: TA98, Metabolic Activation: HAMSTER, LIVER, S-9, AROCLOR 1254 (10%), Method: PREINCUBATION) was “inactive; negative” and the mutagenic call (Test System: AMES SALMONELLA TYPHIMURIUM, Strain/Indicator: TA98, Metabolic Activation: HAMSTER, LIVER, S-9, AROCLOR 1254 (30%), Method: PREINCUBATION) was “inactive; negative”. The mutagenic call (Test System: AMES SALMONELLA TYPHIMURIUM, Strain/Indicator: TA98, Metabolic Activation: NONE, Method: FLUCTUATION (MICROTITER)) was “inactive; negative”, the mutagenic call (Test System: AMES SALMONELLA TYPHIMURIUM, Strain/Indicator: TA98, Metabolic Activation: NONE, Method: PREINCUBATION) was “inactive; negative” and the mutagenic call (Test System: AMES SALMONELLA TYPHIMURIUM, Strain/Indicator: TA98, Metabolic Activation: RAT LIVER S-9, AROCLOR 1254, Method: FLUCTUATION (MICROTITER)) was “inactive; negative”. For the same compound, the mutagenic call (Test System: AMES SALMONELLA TYPHIMURIUM, Strain/Indicator: TA98, Metabolic Activation: RAT LIVER S-9, PHENOBARBITAL AND BETA-NAPHTHOFLAVONE, Method: PREINCUBATION) was “inactive; negative”, the mutagenic call (Test System: AMES SALMONELLA TYPHIMURIUM, Strain/Indicator: TA98, Metabolic Activation: RAT, LIVER, S-9, AROCLOR 1254 (10%), Method: PREINCUBATION) was “inactive; negative” and the mutagenic call (Test System: AMES SALMONELLA TYPHIMURIUM, Strain/Indicator: TA98, Metabolic Activation: RAT, LIVER, S-9, AROCLOR 1254 (30%), Method: PREINCUBATION) was “inactive; negative”. For the same compound, the mutagenic call (Test System: AMES SALMONELLA TYPHIMURIUM, Strain/Indicator: TA100, Metabolic Activation: HAMSTER, LIVER, S-9, AROCLOR 1254 (10 OR 30%), Method: PREINCUBATION) was “inactive; negative”, the mutagenic call (Test System: AMES SALMONELLA TYPHIMURIUM, Strain/Indicator: TA100, Metabolic Activation: NONE, Method: STANDARD PLATE) was “inactive; negative” and the mutagenic call (Test System: AMES SALMONELLA TYPHIMURIUM, Strain/Indicator: TA100, Metabolic Activation: RAT, LIVER, S-9, AROCLOR 1254 (10%), Method: PREINCUBATION) was “inactive; negative”. For the same compound, the mutagenic call (Test System: AMES SALMONELLA TYPHIMURIUM, Strain/Indicator: TA100, Metabolic Activation: RAT, LIVER, S-9, AROCLOR 1254 (30%), Method: PREINCUBATION) was “inactive; negative”, the mutagenic call (Test System: AMES SALMONELLA TYPHIMURIUM, Strain/Indicator: TA100, Method: STANDARD PLATE) was “active; positive” and the mutagenic call (Test System: AMES SALMONELLA TYPHIMURIUM, Strain/Indicator: TA1535, Metabolic Activation: HAMSTER, LIVER, S-9, AROCLOR 1254 (10%), Method: PREINCUBATION) was “inactive; negative”. The mutagenic call (Test System: AMES SALMONELLA TYPHIMURIUM, Strain/Indicator: TA1535, Metabolic Activation: HAMSTER, LIVER, S-9, AROCLOR 1254 (30%), Method: PREINCUBATION) was “inactive; negative”, the mutagenic call (Test System: AMES SALMONELLA TYPHIMURIUM, Strain/Indicator: TA1535, Metabolic Activation: NONE, Method: PREINCUBATION) was “inactive; negative” and the mutagenic call (Test System: AMES SALMONELLA TYPHIMURIUM, Strain/Indicator: TA1535, Metabolic Activation: RAT LIVER S-9, PHENOBARBITAL AND BETA-NAPHTHOFLAVONE, Method: PREINCUBATION) was “inactive; negative”. For the same compound, the mutagenic call (Test System: AMES SALMONELLA TYPHIMURIUM, Strain/Indicator: TA1535, Metabolic Activation: RAT, LIVER, S-9, AROCLOR 1254 (10%), Method: PREINCUBATION) was “inactive; negative”, the mutagenic call (Test System: AMES SALMONELLA TYPHIMURIUM, Strain/Indicator: TA1535, Metabolic Activation: RAT, LIVER, S-9, AROCLOR 1254 (30%), Method: PREINCUBATION) was “inactive; negative” and the mutagenic call (Test System: AMES SALMONELLA TYPHIMURIUM, Strain/Indicator: TA1537, Metabolic Activation: HAMSTER, LIVER, S-9, AROCLOR 1254 (10%), Method: PREINCUBATION) was “inactive; negative”. For the same compound, the mutagenic call (Test System: AMES SALMONELLA TYPHIMURIUM, Strain/Indicator: TA1537, Metabolic Activation: NONE, Method: FLUCTUATION (MICROTITER)) was “inactive; negative”, the mutagenic call (Test System: AMES SALMONELLA TYPHIMURIUM, Strain/Indicator: TA1537, Metabolic Activation: NONE, Method: PREINCUBATION) was “inactive; negative” and the mutagenic call (Test System: AMES SALMONELLA TYPHIMURIUM, Strain/Indicator: TA1537, Metabolic Activation: RAT LIVER S-9, AROCLOR 1254, Method: FLUCTUATION (MICROTITER)) was “inactive; negative”. The mutagenic call (Test System: AMES SALMONELLA TYPHIMURIUM, Strain/Indicator: TA1537, Metabolic Activation: RAT LIVER S-9, PHENOBARBITAL AND BETA-NAPHTHOFLAVONE, Method: PREINCUBATION) was “inactive; negative”, the mutagenic call (Test System: AMES SALMONELLA TYPHIMURIUM, Strain/Indicator: TA1537, Metabolic Activation: RAT, LIVER, S-9, AROCLOR 1254 (10%), Method: PREINCUBATION) was “inactive; negative” and the mutagenic call (Test System: AMES SALMONELLA TYPHIMURIUM, Strain/Indicator: TA7001, Metabolic Activation: NONE, Method: FLUCTUATION (MICROTITER)) was “inactive; negative”. The mutagenic call (Test System: AMES SALMONELLA TYPHIMURIUM, Strain/Indicator: TA7001, Metabolic Activation: RAT LIVER S-9, AROCLOR 1254, Method: FLUCTUATION (MICROTITER)) was “inactive; negative”, the mutagenic call (Test System: AMES SALMONELLA TYPHIMURIUM, Strain/Indicator: TA7002, Metabolic Activation: NONE, Method: FLUCTUATION (MICROTITER)) was “inactive; negative” and the mutagenic call (Test System: AMES SALMONELLA TYPHIMURIUM, Strain/Indicator: TA7002, Metabolic Activation: RAT LIVER S-9, AROCLOR 1254, Method: FLUCTUATION (MICROTITER)) was “inactive; negative”. For the same compound, the mutagenic call (Test System: AMES SALMONELLA TYPHIMURIUM, Strain/Indicator: TA7003, Metabolic Activation: NONE, Method: FLUCTUATION (MICROTITER)) was “inactive; negative”, the mutagenic call (Test System: AMES SALMONELLA TYPHIMURIUM, Strain/Indicator: TA7003, Metabolic Activation: RAT LIVER S-9, AROCLOR 1254, Method: FLUCTUATION (MICROTITER)) was “inactive; negative” and the mutagenic call (Test System: AMES SALMONELLA TYPHIMURIUM, Strain/Indicator: TA7004, Metabolic Activation: NONE, Method: FLUCTUATION (MICROTITER)) was “active; positive”. The mutagenic call (Test System: AMES SALMONELLA TYPHIMURIUM, Strain/Indicator: TA7004, Metabolic Activation: RAT LIVER S-9, AROCLOR 1254, Method: FLUCTUATION (MICROTITER)) was “inactive; negative”, the mutagenic call (Test System: AMES SALMONELLA TYPHIMURIUM, Strain/Indicator: TA7005, Metabolic Activation: NONE, Method: FLUCTUATION (MICROTITER)) was “active; positive” and the mutagenic call (Test System: AMES SALMONELLA TYPHIMURIUM, Strain/Indicator: TA7005, Metabolic Activation: RAT LIVER S-9, AROCLOR 1254, Method: FLUCTUATION (MICROTITER)) was “inactive; negative”. The mutagenic call (Test System: AMES SALMONELLA TYPHIMURIUM, Strain/Indicator: TA7006, Metabolic Activation: NONE, Method: FLUCTUATION (MICROTITER)) was “inactive; negative”, the mutagenic call (Test System: AMES SALMONELLA TYPHIMURIUM, Strain/Indicator: TA7006, Metabolic Activation: RAT LIVER S-9, AROCLOR 1254, Method: FLUCTUATION (MICROTITER)) was “inactive; negative” and the mutagenic call (Test System: Ames Salmonella typhimurium, Strain/Indicator: TA98, Metabolic Activation: None, Method: Direct plate-incorporation) was “inactive; negative (no data given in original article)”. For the same compound, the mutagenic call (Test System: Ames Salmonella typhimurium, Strain/Indicator: TA98, Metabolic Activation: None, Method: Direct plate-incorporation using closed container) was “inactive; negative, moderate toxicity at highest dose”, the mutagenic call (Test System: Ames Salmonella typhimurium, Strain/Indicator: TA98, Metabolic Activation: None, Method: Vaporization-diffusion) was “inactive; negative” and the mutagenic call (Test System: Ames Salmonella typhimurium, Strain/Indicator: TA98, Metabolic Activation: Rat, liver, S-9, Aroclor 1254, Method: Direct plate-incorporation) was “inactive; negative (no data given in original article)”. The mutagenic call (Test System: Ames Salmonella typhimurium, Strain/Indicator: TA98, Metabolic Activation: Rat, liver, S-9, Aroclor 1254, Method: Direct plate-incorporation using closed container) was “inactive; negative, moderate toxicity at highest dose”, the mutagenic call (Test System: Ames Salmonella typhimurium, Strain/Indicator: TA98, Metabolic Activation: Rat, liver, S-9, Aroclor 1254, Method: Preincubation) was “inactive; negative, strain also tested without s-9, but moderate to high toxicity was obse” and the mutagenic call (Test System: Ames Salmonella typhimurium, Strain/Indicator: TA98, Metabolic Activation: Rat, liver, S-9, Aroclor 1254, Method: Vaporization-diffusion) was “inactive; negative”. The mutagenic call (Test System: Ames Salmonella typhimurium, Strain/Indicator: TA100, Metabolic Activation: None, Method: Direct plate-incorporation) was “inactive; negative”, the mutagenic call (Test System: Ames Salmonella typhimurium, Strain/Indicator: TA100, Metabolic Activation: None, Method: Vaporization-diffusion) was “active; positive at all doses, effect of duration of exposure evident, with only 3-hr ex” and the mutagenic call (Test System: Ames Salmonella typhimurium, Strain/Indicator: TA100, Metabolic Activation: Rat, liver, S-9, Aroclor 1254, Method: Direct plate-incorporation) was “active; positive (weak but dose related response; in previous test, higher dose of 2,500”. For the same compound, the mutagenic call (Test System: Ames Salmonella typhimurium, Strain/Indicator: TA100, Metabolic Activation: Rat, liver, S-9, Aroclor 1254, Method: Preincubation) was “active; positive, weak, dose-related increase in number of revertants noted. strain also”, the mutagenic call (Test System: Ames Salmonella typhimurium, Strain/Indicator: TA100, Metabolic Activation: Rat, liver, S-9, Aroclor 1254, Method: Vaporization-diffusion) was “active; positive at all doses, effect of duration of exposure evident, with only 3-hr ex” and the mutagenic call (Test System: Ames Salmonella typhimurium, Strain/Sex: TA100, Metabolic Activation: None, Method: Direct plate-incorporation using closed container) was “active; positive, moderate toxicity at highest dose”. For the same compound, the mutagenic call (Test System: Ames Salmonella typhimurium, Strain/Sex: TA100, Metabolic Activation: Rat, liver, S-9, Aroclor 1254, Method: Direct plate-incorporation using closed container) was “active; positive, moderate toxicity at highest dose” and the mutagenic call (Test System: UDS HUMAN FIBROBLASTS, Strain/Indicator: THY INCORP (NON-S-PHASE), Metabolic Activation: NONE, Method: LIQUID SCINTILLATION COUNTING) was “active; positive”.

From PubChem BioAssay AID1259407 (Chemical Carcinogenesis Research Information System (CCRIS), 2018)
